{"source": "patent US5254686A", "about": "“Procaine double salt complexes” (priority 1992, dated 1993)", "key": {"[1]": {"experiment": "solubility in water and ethanol", "assay_type": "physicochemical", "procedure": "To 50 mls. of boiling water was added 27.2 grams (0.1 mole) of procaine HCl with stirring until completely dissolved. With stirring was added 12.3 grams (0.1 mole) of nicotinic acid. This mixture was heated at the boiling point until clear. The solution was allowed to cool and a white crystalline precipitate formed which was separated in a Buchner funnel and washed twice with […] of cold distilled water. […] In contrast, a 1:1 molar mixture of procaine HCl and nicotinic acid melts at 145°-150° C.\nInto a hot solution of 50 mls of ethanol and 30 mls of water was dissolved 2.72 grams (0.01 mole) of procaine HCl. To this was added 2.44 grams (0.01 mole) of biotin and heat was maintained until the ingredients reacted and the solution cleared. On cooling, crystallization took place easily. White crystalline platelets were filtered, washed and dried."}, "[2]": {"conditions": "unlike other mental stimulants such as amphetamines; cited from earlier work"}, "[3]": {"conditions": "1.3-6.5 moles of caffeine per mole of procaine, aqueous solutions; cited from earlier work"}, "plasma cholinesterase": {"system": "plasma cholinesterase", "conditions": "once absorbed; into PABA and DEAE; cited from earlier work"}, "[4]": {"conditions": "hydrochloride salt form; cited from earlier work"}}, "note": "Structures can show the parent of a compound that is named as a salt."}
{"smiles": "CCN(CC)CCOC(=O)c1ccc(N)cc1", "note": "[II, 1:1 Complex of Procaine HCl and Nicotinic Acid]", "values": [{"measurement": "solubility in water and 95% ethanol", "setting": "[1]; water and 95% ethanol", "value": "moderately soluble"}]}
{"smiles": "CCN(CC)CCO", "note": "[DEAE, diethylaminoethanol]", "values": [{"measurement": "adverse side effects", "setting": "[2]", "value": "no adverse side effects such as depression"}]}
{"smiles": "Cn1c(=O)c2c(ncn2C)n(C)c1=O", "note": "[caffeine]", "values": [{"measurement": "inhibition of procaine hydrolysis", "setting": "[3]", "value": "shown to inhibit procaine hydrolysis"}]}
{"smiles": "CCN(CC)CCOC(=O)c1ccc(N)cc1", "note": "[IV, 1:1 Complex of Procaine HCl and Biotin]", "values": [{"measurement": "solubility in water and ethanol", "setting": "[1]; water and ethanol", "value": "partly soluble"}]}
{"smiles": "CCN(CC)CCOC(=O)c1ccc(N)cc1", "note": "[Procaine hydrochloride, procaine hydrochloride]", "values": [{"measurement": "hydrolysis by plasma cholinesterase", "setting": "plasma cholinesterase", "value": "rapidly hydrolyzed"}, {"measurement": "solubility in water", "setting": "[4]", "value": "soluble in water"}]}
